Assay results taken from ChEMBL document CHEMBL1201862, “PubChem BioAssay data set” (2004).
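Step 1: Grow cells in 96-well plates. Step 2: Expose to compound for 48 hours at 5 concentrations. Step 3: Interpolate endpoints linearly; if unreached, use highest concentration. GI50 is the concentration that inhibits growth by half.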 Activity calls are given as the source filed them. Cut-off read from the data, not from the text of the source: active = GI50 up to about 1.1 µM and inactive = higher.

What was measured:
Experiment in all cases: NCI anticancer screen, dose series, 48 h
786-0 = test system: 786-0
A498 = test system: A498
A549 = test system: A549
ACHN = test system: ACHN
BT-549 = test system: BT-549
CAKI-1 = test system: CAKI-1
CCRF-CEM = test system: CCRF-CEM
COLO 205 = test system: COLO 205
DU-145 = test system: DU-145
EKVX = test system: EKVX
HCC 2998 = test system: HCC 2998
HCT-116 = test system: HCT-116
HL-60 = test system: HL-60
HOP-92 = test system: HOP-92
HT-29 = test system: HT-29
Hs-578T = test system: Hs-578T
IGROV-1 = test system: IGROV-1
K562 = test system: K562
KM12 = test system: KM12
LOX IMVI = test system: LOX IMVI
M14 = test system: M14
MCF7 = test system: MCF7
MDA-MB-231 = test system: MDA-MB-231
MDA-MB-435 = test system: MDA-MB-435
MDA-N = test system: MDA-N
MOLT-4 = test system: MOLT-4
Malme-3M = test system: Malme-3M
NCI-H226 = test system: NCI-H226
NCI-H23 = test system: NCI-H23
NCI-H460 = test system: NCI-H460
NCI-H522 = test system: NCI-H522
NCI/ADR-RES = test system: NCI/ADR-RES
OVCAR-3 = test system: OVCAR-3
OVCAR-4 = test system: OVCAR-4
OVCAR-5 = test system: OVCAR-5
OVCAR-8 = test system: OVCAR-8
PC-3 = test system: PC-3
RPMI-8226 = test system: RPMI-8226
RXF 393 = test system: RXF 393
SF-295 = test system: SF-295
SF-539 = test system: SF-539
SK-MEL-28 = test system: SK-MEL-28
SK-MEL-5 = test system: SK-MEL-5
SK-OV-3 = test system: SK-OV-3
SN12C = test system: SN12C
SNB-19 = test system: SNB-19
SNB-75 = test system: SNB-75
SR = test system: SR
SW-620 = test system: SW-620
T47D = test system: T47D
TK-10 = test system: TK-10
U-251 = test system: U-251
UACC-257 = test system: UACC-257
UO-31 = test system: UO-31

In the case of N#C[C@H](c1nc2ccccc2[nH]1)c1nc2ccccc2nc1Cl, the GI50 (786-0) is reported as 7.62 µM (inactive), the GI50 (A498) is reported as 26.2 µM (inactive) and the GI50 (A549) is reported as > 54.5 µM (inactive). For the same compound, the GI50 (ACHN) was > 23.1 µM (inactive), the GI50 (BT-549) was > 28.2 µM (inactive) and the GI50 (CAKI-1) was 4.68 µM (inactive). For the same compound, the GI50 (CCRF-CEM) was 2.64 µM (inactive), the GI50 (COLO 205) was 12.8 µM (inactive) and the GI50 (DU-145) was 1.78 µM (inactive). For the same compound, the GI50 (EKVX) was 9.68 µM (inactive), the GI50 (HCC 2998) was > 40.6 µM (inactive) and the GI50 (HCT-116) was 6.25 µM (inactive). The GI50 (HL-60) was 0.881 µM (active), the GI50 (HOP-92) was > 29 µM (inactive) and the GI50 (HT-29) was 5.55 µM (inactive). For the same compound, the GI50 (Hs-578T) was 2.05 µM (inactive), the GI50 (IGROV-1) was 11.2 µM (inactive) and the GI50 (K562) was 4.2 µM (inactive). The GI50 (KM12) was 4.35 µM (inactive), the GI50 (LOX IMVI) was 3 µM (inactive) and the GI50 (M14) was > 23.4 µM (inactive). The GI50 (MCF7) was > 26 µM (inactive), the GI50 (MDA-MB-231) was 12.7 µM (inactive) and the GI50 (MDA-MB-435) was 14.3 µM (inactive). For the same compound, the GI50 (MDA-N) was 16.7 µM (inactive), the GI50 (MOLT-4) was 4.04 µM (inactive) and the GI50 (Malme-3M) was 12.4 µM (inactive). For the same compound, the GI50 (NCI-H226) was 22.1 µM (inactive), the GI50 (NCI-H23) was > 34.3 µM (inactive) and the GI50 (NCI-H460) was > 25.1 µM (inactive). For the same compound, the GI50 (NCI-H522) was 2.85 µM (inactive), the GI50 (NCI/ADR-RES) was 29.8 µM (inactive) and the GI50 (OVCAR-3) was > 100 µM (inactive). The GI50 (OVCAR-4) was > 35.2 µM (inactive), the GI50 (OVCAR-5) was > 44.3 µM (inactive) and the GI50 (OVCAR-8) was 12.6 µM (inactive). For the same compound, the GI50 (PC-3) was > 25.9 µM (inactive), the GI50 (RPMI-8226) was 8.93 µM (inactive) and the GI50 (RXF 393) was > 100 µM (inactive). The GI50 (SF-295) was > 61.4 µM (inactive), the GI50 (SF-539) was > 100 µM (inactive) and the GI50 (SK-MEL-28) was 20.2 µM (inactive). The GI50 (SK-MEL-5) was 5.98 µM (inactive), the GI50 (SK-OV-3) was > 53.8 µM (inactive) and the GI50 (SN12C) was 12.7 µM (inactive). The GI50 (SNB-19) was 19.9 µM (inactive), the GI50 (SNB-75) was 12.9 µM (inactive) and the GI50 (SR) was 3.09 µM (inactive). The GI50 (SW-620) was 6.08 µM (inactive), the GI50 (T47D) was 3.96 µM (inactive) and the GI50 (TK-10) was 14 µM (inactive). For the same compound, the GI50 (U-251) was 15.8 µM (inactive), the GI50 (UACC-257) was > 38.7 µM (inactive) and the GI50 (UO-31) was > 47 µM (inactive).
